What was measured:
Type in all cases: cell-based
[1] = system: cardiac ventricular myocytes cultured from chick embryos; assay: Hypoxia-induced myocyte injury, agent present during prolonged (90 min) hypoxia with glucose deprivation; conditions: for effect of antagonist on A1 agonist (CCPA, CHA, ADAC)-induced cardioprotection: antagonist with A1 agonist during prolonged hypoxia; for effect of antagonist on A3 agonist (IB-MECA, Cl-IB-MECA)-induced cardioprotection: antagonist with A3 agonist during prolonged hypoxia; for creatine kinase released during prolonged simulated ischemia: increasing concentrations, presence and absence of DPCPX (FIGS. 3A-3D); for cardioprotective effect when present during prolonged hypoxia (CK released, % myocytes killed): agonist present during prolonged hypoxia/simulated ischemia
Experimental: Ventricular cells were cultured from chick embryos 14 days in ovo as previously described (16, 23). Cells were cultivated in a humidified 5% CO2-95% air mixture at 37° C. […] The medium was changed to a HEPES-buffered medium containing (mM) 139 NaCl, 4.7 KCl, 0.5 MgCl2, 0.9 CaCl2, 5 HEPES (N-2-hydroxyethylpiperazine-N′-2-ethanesulfonic acid) and 2% fetal bovine serum, pH 7.4, 37° C. before exposing the myocytes to the various conditions at 37° C. Control myocytes were maintained in the HEPES-buffered media under room air. Ninety-minute exposure of the myocytes to hypoxia with glucose deprivation was used to induce cell injury. Hypoxia was produced by placing the cells in a hypoxic incubator (NuAire) where O2 was replaced by N2 as previously described (16,23). Effects of adenosine receptor agonists and antagonists on the extent of myocyte injury were determined by exposure of the prepared cells to these agents during the prolonged hypoxia.
(§1) Determination of myocyte injury was made at the end of the ninety-minute hypoxia, at which time myocytes were taken out of the hypoxic incubator and re-exposed to room air (normal % O2). Aliquots of the media were then obtained for creatine kinase (CK) activity measurement, which is followed by quantitation of the number of viable cells. Measurement of basal level of cell injury was made after parallel incubation of control cells under normal % O2. The extent of hypoxia-induced injury to the ventricular cell was quantitatively determined by the percentages of cells killed and by the amount of CK released into the media according to a previously described method (16, 23). […] In brief, the media were replaced with a trypsin-EDTA buffer to detach the cells, which was then followed by sedimentation of the viable myocytes. Parallel changes in % cells killed and CK released (16, 23) further validated this assay for % cells killed. The amount of CK was measured as enzyme activity (unit/mg), and increases in CK activity above the control level were determined. The percentage of cells killed was calculated as the number of cells obtained from the control group (representing cells not subjected to any hypoxia or drug treatment) minus the number of cells from the treatment group divided by number of cells in control group multiplied by 100%.

[2] = system: ventricular myocytes cultured from chick embryos; assay: Pharmacological preconditioning: 5 min exposure to agent, then 90 min simulated ischemia; conditions: for effect of PLD inhibition on protective effect of MRS1760: ethanol (0.5%) or propranolol (100 μM) with 10 nM MRS1760; for preconditioning / cardioprotective effect: agent alone, 5 min exposure before 90 min ischemia
Experimental: FIG. 14 is a graph showing that the partial A1 receptor agonist, 8-butylaminoCPA, mimics the cardioprotective effect of ischemic preconditioning. Ventricular myocytes were cultured from chick embryos 14 days in ovo. The ability of the partial A1 agonist, 8-butylaminoCPA (8-butylamino-N^6-cyclopentyladenosine), to induce preconditioning was determined. In brief, myocytes were exposed to 8-butylaminoCPA at the indicated concentrations for 5 min, incubated for 10 min with agonist-free medium, and then exposed to simulated ischemia for 90 min. The extent of myocyte injury was quantitated at the end of the 90 min period by determinating the percentage of cells killed and the amount of creatine kinase (CK) released (units per milligram of cell protein). Data are means±SE of values from five independent experiments.
as §1
Media were then replaced with fresh media, which was then followed by exposure to 90-minute simulated ischemia and the data graphed.

[3] = target: T1, human adenosine A3 receptor (Homo sapiens, UniProt P0DMS8); assay: Preconditioning in chick atrial myocytes transfected with the human A3 receptor; conditions: hA3R-transfected vs vector-transfected atrial myocytes
T1 construct: full length cDNA encoding human adenosine A3 receptor subcloned in pcDNA3; expressed in transfected cells; host or cells: chick embryo atrial myocytes, transient calcium phosphate transfection with pcDNA3/hA3R
T1 sequence (P0DMS8 1-318): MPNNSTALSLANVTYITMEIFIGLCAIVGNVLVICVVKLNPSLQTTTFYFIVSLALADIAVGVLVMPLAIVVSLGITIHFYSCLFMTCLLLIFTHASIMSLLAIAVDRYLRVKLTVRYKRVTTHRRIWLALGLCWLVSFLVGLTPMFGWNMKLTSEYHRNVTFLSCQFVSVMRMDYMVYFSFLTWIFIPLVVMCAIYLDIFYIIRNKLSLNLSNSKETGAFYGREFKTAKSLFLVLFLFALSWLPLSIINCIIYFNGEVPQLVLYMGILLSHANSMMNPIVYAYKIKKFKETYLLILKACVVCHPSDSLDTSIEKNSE
Experimental: Transfection of chick atrial myocytes with the human A3 receptor—Atrial cells were cultured from chick embryos 14 days in ovo and transiently transfected with pcDNA3 (empty vector) or with pcDNA3/hA3R (full length cDNA encoding human adenosine A3 receptor subcloned in pcDNA3) using the calcium phosphate precipitation method. Forty-eight hours after transfection, the cells were exposed to the compounds of the invention and the percentage of myocytes killed during simulated ischemia was determined.
The transfected myocytes were then exposed to the compound for 5 minutes, which was followed by replacement with fresh media and myocytes exposed to normal conditions (non-ischemic) for 10 minutes prior to being exposed to ninety minutes of ischemia. The decrease in the number of myocytes killed in A3 receptor cDNA-transfected myocytes as compared to vector-transfected myocytes was plotted as a function of the concentration of the compound. This decrease in myocytes killed represented an index of the protection mediated via the human adenosine A3 receptor.

[4] = system: isolated cardiac myocytes; assay: Apoptotic cell death by DNA laddering on 1.5% agarose gel; conditions: for apoptotic cell death caused by prolonged exposure to the agent: no ischemia, agents that increase intracellular calcium
Experimental: Such smearing is indicative of a culmination of the apoptotic cell death pathway. Isolated cardiac myocytes were exposed to 90-min ischemia and 30-min reoxygenation (lanes 4 and 5). […] Lanes 1 and 2 represent myocytes not exposed to ischemia or any agent. Data were representative of three experiments.
Isolated cardiac myocytes were exposed to prolonged moderate simulated ischemia (17 hours with 2-3% O2). Lane 3 represents myocytes not exposed to ischemia or any agent. Lane 5 represents myocytes exposed to 17 hours of ischemia. […] Data were representative of three experiments.
Lane 3 represents myocytes not exposed to any agent. Lane 5 represents cardiac myocytes exposed (for three hours) to an agent (a P2X receptor agonist, 2-methylthioATP) known to increase intracellular calcium concentration. Prolonged exposure to 2-methylthioATP or UTP caused increased apoptosis (Lane 7). […] Data were representative of two experiments.
The effects of agents which target the adenosine receptor on apoptosis were initially examined in isolated cardiac myocytes exposed to ischemia (for 90 minutes and 30 minutes of reoxygenation) or agents which increase intracellular calcium levels. Increasing the level of intracellular calcium concentration induces non-ischemia-related apoptosis in vitro. Apoptotic cell death of cardiac myocytes was assessed by determining the extent of smearing or “DNA laddering” on 1.5% agarose gels.

[5] = 8-SPT alone present during the hypoxia
[6] = in the presence of adenosine and 8-SPT (100 μM) during hypoxia

CCCn1c(=O)c2[nH]c(C3CCCC3)nc2n(CCC)c1=O [DPCPX, 8-cyclopentyl-1,3-dipropylxanthine]
effect of antagonist on A1 agonist (CCPA, CHA, ADAC)-induced cardioprotection [1]: blocked by the A1 antagonist DPCPX
effect of antagonist on A3 agonist (IB-MECA, Cl-IB-MECA)-induced cardioprotection [1]: had no effect on the ability of IB-MECA or Cl-IB-MECA to mediate their cardioprotective effects

CCO [ethanol]
effect of PLD inhibition on protective effect of MRS1760 [2]: abolished the protective effect of MRS1760

CNC(=O)C1OC(n2cnc3c(NCc4cccc(C#CCNC(=O)Cc5ccc(NC(=O)Cc6ccc(Nc7ncnc8c7ncn8C7OC(CO)C(O)C7O)cc6)cc5)c4)ncnc32)C(O)C1O (centres unmarked) [MRS 1543]
protective effect in combined presence of DPCPX and MRS1191 ([2]; DPCPX (1 μM) plus MRS1191 (1 μM)): completely abolished the protective effect of MRS1543
preconditioning / cardioprotective effect [2]: can pharmacologically precondition the cardiac myocyte and induce a potent cardioprotective effect
protective effect in presence of DPCPX ([2]; excess DPCPX (1 μM)): only partially blocked by A1 antagonist DPCPX
protective effect in presence of MRS1191 ([2]; excess MRS1191 (1 μM)): only partially attenuated by the A3 antagonist MRS1191
preconditioning / protection mediated via human adenosine A3 receptor [3]: can precondition and induces a cardioprotective effect via the human adenosine A3 receptor

CNC(=O)C1OC(n2cnc3c(NCc4cccc(S(=O)(=O)O)c4)ncnc32)C(O)C1O (centres unmarked) [MRS 1340]
creatine kinase released during prolonged simulated ischemia [1]: cardioprotective effects

COc1ccc2c(c1)CC[C@@H]1[C@@H]2CC[C@]2(C)[C@@H](NCCCCCCN3C(=O)C=CC3=O)CC[C@@H]12 [U-73122]
effect of PLC inhibitor on protective response to 8-butylaminoCPA ([2]; U-73122 (10 μM) with 1 μM 8-butylaminoCPA): able to block the protective response to 8-butylaminoCPA

CNC(=O)C1CC(O)C(n2cnc3c(NCc4cccc(I)c4)nc(Cl)nc32)O1 (centres unmarked) [MRS 584]
creatine kinase released during prolonged simulated ischemia [1]: cardioprotective effects
preconditioning / protection mediated via human adenosine A3 receptor [3]: can exert the cardioprotective effect of preconditioning via the human adenosine A3 receptor

Cn1c(=O)c2[nH]c(-c3ccc(S(=O)(=O)O)cc3)nc2n(C)c1=O [8-SPT, 8-sulfophenyl-theophylline]
% cells killed [1, 5]: 31.6±1.5%
CK released [1, 5]: 29.6±1.2 unit/mg

O=c1ccn([C@@H]2O[C@H](COP(=O)(O)OP(=O)(O)OP(=O)(O)O)[C@@H](O)[C@H]2O)c(=O)[nH]1 [UTP]
apoptotic cell death caused by prolonged exposure to the agent [4]: caused an increase in apoptotic cell death

OC[C@H]1O[C@@H](n2cnc3c(NC4CCCCC4)ncnc32)[C@H](O)[C@@H]1O [CHA, N^6-cyclohexyladenosine]
cardioprotective effect when present during prolonged hypoxia (CK released, % myocytes killed) [1]: able to protect the myocytes when present during the prolonged hypoxia

Cn1c(=O)c2c(nc(C=Cc3cccc(Cl)c3)n2C)n(C)c1=O [CSC, 8-(3-chlorostyryl)caffeine]
apoptosis (DNA laddering) ([4]; prolonged moderate ischemia, 17 hours with 2-3% O2): reduced apoptosis induced by the prolonged moderate ischemia

CCOC(=O)C1=C(C)NC(c2ccccc2)=C(C(=O)OCC)C1/C=C/c1ccccc1 (centres unmarked) [MRS 1097, 3,5-Diethyl 2-methyl-6-phenyl-4-[2-phenyl-(E)-vinyl]-1,4-(1)-dihydropyridine-3,5-dicarboxylate]
effect of antagonist on A1 agonist (CCPA, CHA, ADAC)-induced cardioprotection [1]: neither MRS 1191 nor MRS 1097 was able to block the CCPA-induced cardioprotection
effect of antagonist on A3 agonist (IB-MECA, Cl-IB-MECA)-induced cardioprotection [1]: able to block the cardioprotective effect of Cl-IB-MECA

Nc1ncnc2c1ncn2[C@@H]1O[C@H](CO)[C@@H](O)[C@H]1O [Adenosine]
CK released ([1]; adenosine 10 μM added during ninety-minute hypoxia, hypoxia alone 28.5±1.5): 14.9±3 unit/mg
% cells killed ([1]; adenosine 10 μM added during ninety-minute hypoxia, hypoxia alone 30±2): 12±2%
% cells killed [1, 6]: 28±3%
CK released [1, 6]: 31±5 unit/mg

CCOC(=O)C1=C(C)NC(c2ccccc2)=C(C(=O)OCc2ccccc2)C1C#Cc1ccccc1 (centres unmarked) [MRS 1191, 3-ethyl-5-benzyl-2-methyl-6-phenyl-4-phenylethynyl-1,4-(1)-dihydropyridine-3,5-dicarboxylate]
effect of antagonist on A1 agonist (CCPA, CHA, ADAC)-induced cardioprotection [1]: neither MRS 1191 nor MRS 1097 was able to block the CCPA-induced cardioprotection
effect of antagonist on A3 agonist (IB-MECA, Cl-IB-MECA)-induced cardioprotection [1]: blocked the Cl-IB-MECA-induced cardioprotection
apoptotic cell death (DNA laddering) ([4]; 90 min ischemia and 30 min reoxygenation, 10 nM Cl-IB-MECA, 1 μM MRS1191): but not the A3 antagonist (MRS1191) reduced apoptotic cell death

CSc1nc(N)c2ncn([C@@H]3O[C@H](COP(=O)(O)OP(=O)(O)OP(=O)(O)O)[C@@H](O)[C@H]3O)c2n1 [2-methylthioATP]
apoptotic cell death caused by prolonged exposure to the agent [4]: caused an increase in apoptotic cell death

OC[C@@]12C[C@@H]1[C@@H](n1cnc3c(NCc4cccc(I)c4)ncnc31)[C@H](O)[C@@H]2O [MRS1743]
preconditioning / cardioprotective effect [2]: exerting a potent preconditioning-like effect

CNC(=O)[C@H]1O[C@@H](n2cnc3c(NCc4cccc(I)c4)ncnc32)[C@H](O)[C@@H]1O [IB-MECA, N6-(3-iodobenzyl)adenosine-5′-N-methyluronamide]
cardioprotective effect when present during prolonged hypoxia (CK released, % myocytes killed) [1]: capable of protecting the cardiac myocytes against hypoxia-induced injury

CNC(=O)C1OC(n2cnc3c(NCc4cccc(I)c4)nc(NC)nc32)C(O)C1O (centres unmarked) [MRS 537]
creatine kinase released during prolonged simulated ischemia [1]: cardioprotective effects
preconditioning / protection mediated via human adenosine A3 receptor [3]: can exert the cardioprotective effect of preconditioning via the human adenosine A3 receptor

CC(C)NCC(O)COc1cccc2ccccc12 (centres unmarked) [Propranolol]
effect of PLD inhibition on protective effect of MRS1760 [2]: also abolished the protective effect of MRS1760
